In patent US11492375B2, “Cyclic peptide immunomodulators” (Bristol-Myers Squibb Company, priority 2017, dated 2022) one finds IC50 and bioavailability data, which are given here for eleven molecules.

One series deals with PD-1-Ig binding to PD-L1-TVMV-His (PD-L1-His) (Homo sapiens (Human), UniProt Q9NZQ7). Nature of the series: PD-1/PD-L1 Homogenous Time-Resolved Fluorescence (HTRF) binding assay. To be noted: PD-1-Ig/PD-L1-His binding; numeric value; read-out: HTRF IC50 (μM) or Range. The source says: The ability of the macrocyclic peptides of the present disclosure to bind to PD-L1 was investigated using a PD-1/PD-L1 Homogenous Time-Resolved Fluorescence (HTRF) binding assay.
Chain of PD-1-Ig binding to PD-L1-TVMV-His (PD-L1-His) (Q9NZQ7 other isoform, or with tags, fused parts or gaps): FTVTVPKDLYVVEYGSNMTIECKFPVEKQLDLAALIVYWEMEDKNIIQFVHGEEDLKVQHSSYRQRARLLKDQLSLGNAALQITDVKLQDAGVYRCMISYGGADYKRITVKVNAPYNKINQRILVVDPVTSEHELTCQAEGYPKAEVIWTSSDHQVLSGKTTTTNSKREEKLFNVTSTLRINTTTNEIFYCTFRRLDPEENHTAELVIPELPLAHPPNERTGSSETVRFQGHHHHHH
Homogenous Time-Resolved Fluorescence (HTRF) Assays of Binding of Soluble PD-1 to Soluble PD-L1. Soluble PD-1 and soluble PD-L1 refers to proteins with carboxyl-end truncations that remove the transmembrane-spanning regions and are fused to heterologous sequences, specifically the Fc portion of the human immunoglobuling G sequence (Ig) or the hexahistidine epitope tag (His). All binding studies were performed in an HTRF assay buffer consisting of dPBS supplemented with 0.1% (w/v) bovine serum albumin and 0.05% (v/v) Tween-20. For the PD-1-Ig/PD-L1-His binding assay, inhibitors were pre-incubated with PD-L1-His (10 nM final) for 15m in 4 μl of assay buffer, followed by addition of PD-1-Ig (20 nM final) in 1 μl of assay buffer and further incubation for 15 m. PD-L1 fusion proteins from either human, cynomologous macaques, mouse, or other species were used. HTRF detection was achieved using europium crypate-labeled anti-Ig monoclonal antibody (1 nM final) and allophycocyanin (APC) labeled anti-His monoclonal antibody (20 nM final). Antibodies were diluted in HTRF detection buffer and 5 μl was dispensed on top of binding reaction. The reaction was allowed to equilibrate for 30 minutes and signal (665 nm/620 nm ratio) was obtained using an EnVision fluorometer. Additional binding assays were established between PD-1-Ig/PD-L2-His (20 and 5 nM, respectively), CD8O-His/PD-L1-Ig (100 and 10 nM, respectively) and CD80-His/CTLA4-Ig (10 and 5 nM, respectively). Binding/competition studies between biotinylated Compound No. 71 and human PD-L1-His were performed as follows. Macrocyclic peptide inhibitors were pre-incubated with PD-L1-His (10 nM final) for 60 minutes in 4 μl of assay buffer followed by addition of biotinylated Compound No. 71 (0.5 nM final) in 1 μl of assay buffer. Binding was allowed to equilibrate for 30 minutes followed by addition of europium crypated labeled Streptavidin (2.5 pM final) and APC-labeled anti-His (20 nM final) in 5 μl of HTRF buffer. The reaction was allowed to equilibrate for 30 m and signal (665 nm/620 nm ratio) was obtained using an EnVision fluorometer.
Recombinant Proteins. Carboxyl-truncated human PD-1 (amino acids 25-167) with a C-terminal human Ig epitope tag [hPD-1 (25-167)-35-IG] and human PD-L1 (amino acids 18-239) with a C-terminal His epitope tag [hPD-L1(19-239)-tobacco vein mottling virus protease cleavage site (TVMV)-His] were expressed in HEK293T cells and purified sequentially by recombinant Protein A affinity chromatography and size exclusion chromatography. Human PD-L2-His (Sino Biologicals), CD80-His (Sino Biologicals), CTLA4-Ig (RnD Systems) were all obtained through commercial sources.
Take `C[C@@H]1NC(=O)[C@@H]2CCCC/C=C\CCCC[C@@H](C(=O)N2C)N(C)C(=O)[C@H](Cc2c[nH]c3ccccc23)NC(=O)[C@H](CO)NC(=O)[C@H](Cc2c[nH]c3ccccc23)NC(=O)[C@@H]2C[C@@H](O)CN2C(=O)[C@H](CCC(N)=O)NC(=O)[C@H](Cc2cnc[nH]2)NC(=O)[C@@H]2CCCN2C(=O)[C@H](CC(=O)O)NC(=O)[C@@H]2CCCCN2C(=O)[C@H](Cc2ccc(O)cc2)NC(=O)CSC[C@@H](C(=O)NCC(N)=O)NC1=O` [Example 1120]: the IC50 is 0.004 µM. `CC(C)C[C@@H]1NC(=O)[C@H](CN)NC(=O)[C@@H]2CCCN2C(=O)[C@H](CC(N)=O)NC(=O)[C@H](C)N(C)C(=O)[C@H](Cc2ccc(O)cc2)NC(=O)CSC[C@H](C(=O)NCC(N)=O)NC(=O)[C@@H](C)NC(=O)[C@H]2CC/C=C\CC[C@@H](C(=O)N2C)N(C)C(=O)[C@H](Cc2c[nH]c3ccccc23)NC(=O)[C@H](CO)NC(=O)[C@@H](Cc2c[nH]c3ccccc23)NC(=O)[C@@H]2C[C@@H](O)CN2C1=O` [Example 1103]: the IC50 stood at 1.5 µM.

Staying with this series, now noted: PD-1-Ig/PD-L1-His binding; value given as range class; read-out: HTRF IC50 (μM) or Range.
On to `C[C@H]1C(=O)N[C@@H](CC(=O)O)C(=O)N2CCC[C@H]2C(=O)N[C@@H](CN)C(=O)N[C@@H](CCC(=O)O)C(=O)N2C[C@H](O)C[C@H]2C(=O)N[C@@H](Cc2c[nH]c3ccccc23)C(=O)N[C@@H](CO)C(=O)N[C@@H](Cc2c[nH]c3ccccc23)C(=O)N(C)[C@H]2CCCC/C=C\CCCC[C@@H](C(=O)N[C@@H](CCC(=O)O)C(=O)N[C@H](C(=O)NCC(N)=O)CSCC(=O)N[C@@H](Cc3ccc(O)cc3)C(=O)N1C)N(C)C2=O` [Example 1111], for which the IC50 is 0.002 to 0.0099 µM. On to `C[C@H]1C(=O)N[C@@H](CC(=O)O)C(=O)N2CCC[C@H]2C(=O)N[C@@H](CN)C(=O)N[C@@H](CCC(=O)O)C(=O)N2C[C@H](O)C[C@H]2C(=O)N[C@@H](Cc2c[nH]c3ccccc23)C(=O)N[C@@H](CCN)C(=O)N[C@@H](Cc2cn(CC(=O)O)c3ccccc23)C(=O)N(C)C2CCCCC/C=C\CCCC[C@@H](C(=O)N[C@@H](CCC(=O)O)C(=O)N[C@H](C(=O)NCC(N)=O)CSCC(=O)N[C@@H](Cc3ccc(O)cc3)C(=O)N1C)N(C)C2=O` [Example 1122], for which the IC50 lay in the range of 0.002 to 0.0099 µM. Same read-out and setting: with `CC(C)C[C@@H]1NC(=O)[C@H](Cc2cnc[nH]2)NC(=O)[C@@H]2CCCN2C(=O)[C@H](CC(N)=O)NC(=O)[C@H](C)N(C)C(=O)[C@H](Cc2ccccc2)NC(=O)CSC[C@@H](C(=O)NCC(N)=O)NC(=O)[C@H](CCCNC(=N)N)NC(=O)[C@@H]2CCCC/C=C\CCCC[C@@H](C(=O)N2C)N(C)C(=O)[C@H](Cc2c[nH]c3ccccc23)NC(=O)[C@H](CO)NC(=O)[C@H](Cc2c[nH]c3ccccc23)NC(=O)CN(C)C1=O` [Example 1100] the figure was 0.01 to 0.099 µM; with `CN1C(=O)[C@H](Cc2csc3ccccc23)NC(=O)[C@H](CO)NC(=O)[C@H](Cc2c[nH]c3ccccc23)NC(=O)[C@@H]2C[C@@H](O)CN2C(=O)[C@H](CCC(N)=O)NC(=O)[C@H](CN)NC(=O)[C@@H]2CCCN2C(=O)[C@H](CC(=O)O)NC(=O)[C@@H]2CCCCN2C(=O)[C@H](Cc2ccc(O)cc2)NC(=O)CSC[C@@H](C(=O)NCC(N)=O)NC(=O)[C@H](CN)NC(=O)[C@@H]2CCCC/C=C\CCCC[C@H]1C(=O)N2C` [Example 1119], 0.002 to 0.0099 µM. Still for that read-out and setting: with `CC(C)C[C@@H]1NC(=O)[C@H](Cc2cnc[nH]2)NC(=O)[C@@H]2CCCN2C(=O)[C@H](CC(N)=O)NC(=O)[C@@H]2COCCN2C(=O)[C@H](Cc2ccc(O)cc2)NC(=O)CSC[C@H](C(=O)NCC(N)=O)NC(=O)[C@@H](C)NC(=O)C2CCC/C=C\CCC[C@@H](C(=O)N2C)N(C)C(=O)[C@H](Cc2c[nH]c3ccccc23)NC(=O)[C@H](CO)NC(=O)[C@@H](Cc2c[nH]c3ccccc23)NC(=O)[C@@H]2C[C@@H](O)CN2C1=O` [Example 1105] the figure was 0.1 to 2 µM; with `CC(C)C[C@@H]1NC(=O)[C@H](Cc2cnc[nH]2)NC(=O)[C@@H]2CCCN2C(=O)[C@H](CC(N)=O)NC(=O)[C@H](C)N(C)C(=O)[C@H](Cc2ccccc2)NC(=O)CSC[C@@H](C(=O)NCC(N)=O)NC(=O)[C@H](CCCNC(=N)N)NC(=O)[C@@H]2CCCCC/C=C/CCCCC[C@@H](C(=O)N2C)N(C)C(=O)[C@H](Cc2c[nH]c3ccccc23)NC(=O)[C@H](CO)NC(=O)[C@H](Cc2c[nH]c3ccccc23)NC(=O)CN(C)C1=O` [Example 1002], 0.01 to 0.099 µM; with `C[C@@H]1NC(=O)[C@@H]2CCCC/C=C\CCCC[C@@H](C(=O)N2C)N(C)C(=O)[C@H](Cc2c[nH]c3ccccc23)NC(=O)[C@H](CO)NC(=O)[C@H](Cc2c[nH]c3ccccc23)NC(=O)[C@@H]2C[C@@H](O)CN2C(=O)[C@H](CCC(N)=O)NC(=O)[C@H](Cc2cnc[nH]2)NC(=O)[C@@H]2CCCN2C(=O)[C@H](CC(=O)O)NC(=O)[C@H](C)N(C)C(=O)[C@H](Cc2ccc(O)cc2)NC(=O)CSC[C@@H](C(=O)NCC(N)=O)NC1=O` [Example 1113], 0.002 to 0.0099 µM. Same read-out and setting: then `CN1C(=O)[C@H](Cc2cn(CC(=O)O)c3ccccc23)NC(=O)[C@H](CCN)NC(=O)[C@H](Cc2c[nH]c3ccccc23)NC(=O)[C@@H]2C[C@@H](O)CN2C(=O)[C@H](CCC(=O)O)NC(=O)[C@H](CN)NC(=O)[C@@H]2CCCN2C(=O)[C@H](CC(=O)O)NC(=O)[C@H]2CCCCN2C(=O)[C@H](Cc2ccc(O)cc2)NC(=O)CSC[C@@H](C(=O)NCC(N)=O)NC(=O)[C@H](CCC(=O)O)NC(=O)[C@@H]2Cc3ccc(cc3)OCC=CCCC[C@H]1C(=O)N2C` [Example 1121], with 0.01 to 0.099 µM.

System in another series: not given
Assay: not given
To be noted: oral formulation ENTOCORT EC, extensive first-pass metabolism; cited from earlier work.
Consider `CCCC1O[C@@H]2C[C@H]3[C@@H]4CCC5=CC(=O)C=C[C@]5(C)[C@H]4[C@@H](O)C[C@]3(C)[C@]2(C(=O)CO)O1` (some centres unmarked) [budesonide], for which the bioavailability entry is listed as “about 10%”.
